Values quoted from earlier work as cited in patent US9511020B2, “Controlled release corticosteroid compositions and methods for the treatment of otic disorders” (priority 2008, dated 2016).

Legend:
[1] = for Glucocorticoid potency: relative potency
[2] = relative potency

| Compound | Glucocorticoid potency [1] | Mineralocorticoid potency [2] | potency relative to endogenous cortisol ([1]; times the potency of endogenous cortisol) |
| --- | --- | --- | --- |
| C[C@]12CCC(=O)C=C1CC[C@@H]1[C@@H]2[C@@H](O)C[C@]2(C=O)[C@@H](C(=O)CO)CC[C@@H]12 [aldosterone] | 0.07 | 1.0 |  |
| C[C@]12CCC(=O)C=C1CC[C@@H]1[C@@H]2[C@@H](O)C[C@@]2(C)[C@H]1CC[C@]2(O)C(=O)CO [cortisol] | 1 | 0.054 |  |
| C[C@]12C=CC(=O)C=C1CC[C@@H]1[C@@H]2[C@@H](O)C[C@@]2(C)[C@H]1CC[C@]2(O)C(=O)CO [prednisolone] | 1.7 | 0.013 | 4-5 times |
| C=C1C[C@H]2[C@@H]3CCC4=CC(=O)C=C[C@]4(C)[C@H]3[C@@H](O)C[C@]2(C)[C@@]1(O)C(=O)CO [prednylidene] | 182 | 0.0011 |  |
| C[C@]12C=CC(=O)C=C1CC[C@H]1[C@@H]3C[C@@H](O)[C@](O)(C(=O)CO)[C@@]3(C)C[C@H](O)[C@@]12F [triamcinolone] | 0.35 | 0.0002 |  |
